Experimental data from PubChem BioAssay AID256 (DTP/NCI, 2004).
Values joined by “and” are separate entries in the source; they are usually repeats but may differ in a detail not shown here. Identical values can stand only once. Toxic doses and inconclusive results are not listed. How the source made its calls: active means survival T/C of 150% or more; inactive means T/C below 125% in these data.

Tested on: CD2F1 mice, L1210 leukemia ip, survival T/C
Experiment: NCI In Vivo Anticancer Drug Screen. Data for tumor model L1210 Leukemia (intraperitoneal) in CD2F1 (CDF1) mice
Conditions: higher = longer survival
Summary of the method: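 Each value reflects a quotient of treated over vehicle control outcomes in mice with a transplanted tumor.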

[1] = endpoint: mean survival time, dose: 100.0 mg/kg/injection, schedule: Q04DX002 (ip), vehicle: saline with Tween-80
[2] = endpoint: mean survival time, dose: 200.0 mg/kg/injection, schedule: Q04DX002 (ip), vehicle: saline with Tween-80
[3] = endpoint: mean survival time, dose: 100.0 mg/kg/injection, schedule: Q01DX009 (ip), vehicle: saline with Tween-80
[4] = endpoint: mean survival time, dose: 100.0 mg/kg/injection, schedule: Q04DX003 (ip), vehicle: saline with Tween-80
[5] = endpoint: mean survival time, dose: 200.0 mg/kg/injection, schedule: Q01DX009 (ip), vehicle: saline with Tween-80
[6] = endpoint: mean survival time, dose: 200.0 mg/kg/injection, schedule: Q04DX003 (ip), vehicle: saline with Tween-80
[7] = endpoint: mean survival time, dose: 400.0 mg/kg/injection, schedule: Q01DX009 (ip), vehicle: saline with Tween-80
[8] = endpoint: mean survival time, dose: 400.0 mg/kg/injection, schedule: Q04DX003 (ip), vehicle: saline with Tween-80
[9] = endpoint: mean survival time, dose: 100.0 mg/kg/injection, schedule: Q01DX001 (ip), vehicle: saline with Tween-80
[10] = endpoint: mean survival time, dose: 200.0 mg/kg/injection, schedule: Q01DX001 (ip), vehicle: saline with Tween-80
[11] = endpoint: mean survival time, dose: 400.0 mg/kg/injection, schedule: Q01DX001 (ip), vehicle: saline with Tween-80
[12] = endpoint: mean survival time, dose: 50.0 mg/kg/injection, schedule: Q01DX009 (ip), vehicle: saline with Tween-80
[13] = endpoint: mean survival time, dose: 25.0 mg/kg/injection, schedule: Q01DX009 (ip), vehicle: saline with Tween-80

Measured: T/C

Nc1ccc(S(=O)(=O)c2ccc(N3CCOCC3)c(N)c2)cc1
inactive: [1] 105 % of control | [2] 94 % of control | endpoint: mean survival time, dose: 400.0 mg/kg/injection, schedule: Q04DX002 (ip), vehicle: saline with Tween-80 97 % of control

O=C1CCc2cccc(O)c21
inactive: [3] 98 % of control | [4] 101 % of control | [5] 93 % of control | [6] 97 % of control | [7] 95 % of control | [8] 108 % of control

c1ccc(NC(Nc2ccccn2)c2ccncc2)nc1
inactive: endpoint: mean survival time, dose: 54.25 mg/kg/injection, schedule: Q04DX003 (ip), vehicle: saline with Tween-80 97 % of control | [4] 102 % of control | endpoint: mean survival time, dose: 108.5 mg/kg/injection, schedule: Q04DX003 (ip), vehicle: saline with Tween-80 103 % of control | [6] 108 % of control | endpoint: mean survival time, dose: 217.0 mg/kg/injection, schedule: Q04DX003 (ip), vehicle: saline with Tween-80 102 % of control | [8] 110 % of control | endpoint: mean survival time, dose: 434.0 mg/kg/injection, schedule: Q04DX003 (ip), vehicle: saline with Tween-80 100 % of control | endpoint: mean survival time, dose: 600.0 mg/kg/injection, schedule: Q04DX003 (ip), vehicle: saline with Tween-80 113 % of control

CCCCCCCS(=O)CCCl (stereo unspecified)
inactive: [1] 96 % of control | [2] 108 % of control

Nc1ncnc2c1ncn2C(C=O)OC(C=O)CO (stereo unspecified)
inactive: endpoint: mean survival time, dose: 35.0 mg/kg/injection, schedule: Q01DX001 (ip), vehicle: saline 117 % of control

C=C1C(=O)O[C@@H]2[C@H]1CC[C@H](C)[C@]1(O)CCC(=O)[C@@]21C
inactive: [3] 98 % of control | [5] 101 % of control | [7] 110 % of control

Clc1ccc(OCCCCCNCCSSCCNCCCCCOc2ccc(Cl)cn2)nc1
inactive: endpoint: mean survival time, dose: 75.0 mg/kg/injection, schedule: Q01DX001 (ip), vehicle: other 101 % of control | endpoint: mean survival time, dose: 150.0 mg/kg/injection, schedule: Q01DX001 (ip), vehicle: other 103 % of control | endpoint: mean survival time, dose: 300.0 mg/kg/injection, schedule: Q01DX001 (ip), vehicle: other 106 % of control

COC(=O)C12CCC(C)(C)CC1C1=CCC3C4(C)CCC(OC(C)=O)CC4CCC3(C)C1(C)CC2 (stereo unspecified)
inactive: [9] 93 % of control | [3] 100 % of control | [10] 92 % of control | [5] 100 % of control | [11] 97 % of control | [7] 109 % of control

CCCCOC(=O)c1cnc[nH]c1=O
inactive: [9] 95 % of control | [10] 93 % of control | [11] 96 % of control

CCCCCCCCCCCC(=O)CCCC
inactive: endpoint: mean survival time, dose: 100.0 mg/kg/injection, schedule: Q01DX009 (ip), vehicle: other 98 % of control | endpoint: mean survival time, dose: 100.0 mg/kg/injection, schedule: Q04DX003 (ip), vehicle: other 102 % of control | endpoint: mean survival time, dose: 200.0 mg/kg/injection, schedule: Q01DX009 (ip), vehicle: other 104 % of control | endpoint: mean survival time, dose: 200.0 mg/kg/injection, schedule: Q04DX003 (ip), vehicle: other 91 % of control | endpoint: mean survival time, dose: 400.0 mg/kg/injection, schedule: Q01DX009 (ip), vehicle: other 106 % of control | endpoint: mean survival time, dose: 400.0 mg/kg/injection, schedule: Q04DX003 (ip), vehicle: other 97 % of control

CSc1ccc(C)cn1 (tested in a mixture with another compound)
inactive: [3] 100 % of control | [5] 97 % of control

O=C1CN(CCN2CC(=O)N(CN3CCOCC3)C(=O)C2)CC(=O)N1CN1CCOCC1
inactive: endpoint: median survival time, dose: 12.5 mg/kg/injection, schedule: Q01DX009 (ip), vehicle: water 111 % of control | endpoint: median survival time, dose: 25.0 mg/kg/injection, schedule: Q01DX009 (ip), vehicle: water 118 % of control | endpoint: median survival time, dose: 200.0 mg/kg/injection, schedule: Q01DX009 (ip), vehicle: water 97 % of control and 111 % of control
active: endpoint: median survival time, dose: 50.0 mg/kg/injection, schedule: Q01DX009 (ip), vehicle: water 164 % of control | endpoint: median survival time, dose: 100.0 mg/kg/injection, schedule: Q01DX009 (ip), vehicle: water 181 % of control and 188 % of control

CC(=O)OCC(OC(C)=O)C(OC(C)=O)C(OC(C)=O)C(OC(C)=O)C(=O)C=O (stereo unspecified)
inactive: [12] 101 % of control | [3] 101 % of control | [5] 109 % of control

CC(C)=CC(C)OC(=O)N(C)C (stereo unspecified)
inactive: [4] 97 % of control | [6] 94 % of control

COc1cc(OC)c(NC(=O)OCCOc2ccc([N+](=O)[O-])cc2)cc1Cl
inactive: [12] 90 % of control | [3] 86 % of control | [5] 97 % of control

CC(C)[NH-].CC(C)[NH-].O.O.[Cl][Pt+2][Cl]
inactive: endpoint: mean survival time, dose: 1.5 mg/kg/injection, schedule: Q01DX009 (ip), vehicle: saline 118 % of control | endpoint: mean survival time, dose: 1.57 mg/kg/injection, schedule: Q01DX009 (ip), vehicle: saline 115 % of control | endpoint: mean survival time, dose: 100.0 mg/kg/injection, schedule: Q01DX001 (ip), vehicle: saline 112 % of control | endpoint: mean survival time, dose: 200.0 mg/kg/injection, schedule: Q01DX001 (ip), vehicle: saline 90 % of control

CCN(CC)CCNc1ncnc(N)c1C(=C(C)C)c1ccc(Cl)cc1
inactive: [12] 96 % of control | [9] 94 % of control | [3] 96 % of control | [10] 86 % of control | [5] 87 % of control

Nc1nc[nH]c(=O)c1N
inactive: [9] 107 % of control | [10] 107 % of control | [11] 102 % of control

CCCCC(c1ccccc1)P(=O)(OCC)OCC (stereo unspecified)
inactive: [13] 97 % of control | [12] 103 % of control | [3] 102 % of control and 111 % of control

COC(=O)c1cccc(C)c1O
inactive: [3] 102 % of control | [4] 97 % of control | [5] 98 % of control | [6] 96 % of control | [8] 93 % of control

C=CCNC(=O)C[n+]1cccc(C(=O)Nc2ccc(Cl)cc2)c1
inactive: [13] 97 % of control | [12] 96 % of control | [3] 102 % of control | [4] 107 % of control

Cc1cc(N(CCCl)CCCl)ccc1C=Nc1cccnc1
inactive: endpoint: mean survival time, dose: 50.0 mg/kg/injection, schedule: Q01DX009 (ip), vehicle: Klucel (hydroxypropylcellulose) (HPC) 101 % of control | endpoint: mean survival time, dose: 100.0 mg/kg/injection, schedule: Q01DX009 (ip), vehicle: Klucel (hydroxypropylcellulose) (HPC) 106 % of control | endpoint: mean survival time, dose: 200.0 mg/kg/injection, schedule: Q01DX009 (ip), vehicle: Klucel (hydroxypropylcellulose) (HPC) 110 % of control | endpoint: mean survival time, dose: 400.0 mg/kg/injection, schedule: Q01DX009 (ip), vehicle: Klucel (hydroxypropylcellulose) (HPC) 112 % of control

O=C(O)CCC(=O)CC1CCCCC1
inactive: [12] 98 % of control | [3] 105 % of control | [5] 98 % of control

Nc1nc2c(ncn2-c2cccc(NC(=O)c3cc(S(=O)(=O)F)ccc3Cl)c2)c(=O)[nH]1
inactive: [9] 88 % of control | [10] 94 % of control | [11] 94 % of control

CC([N+](=O)[O-])S(C)(=O)=O (stereo unspecified)
inactive: [9] 97 % of control | [10] 101 % of control | [11] 101 % of control

CSCCC(C)(C)C
inactive: endpoint: mean survival time, dose: 75.0 mg/kg/injection, schedule: Q01DX001 (ip), vehicle: saline 103 % of control

Cc1o[nH]c(=O)c1C
inactive: [3] 96 % of control | [5] 98 % of control | [7] 98 % of control

Cc1ccc(-c2nc(-c3ccccc3)[nH]c(=O)c2CCO)cc1
inactive: [4] 94 % of control | [6] 92 % of control | [8] 88 % of control

Cc1cc(N(C)C)ccc1N=Nc1cc[n+]([O-])c(C)c1
inactive: [13] 103 % of control | [12] 108 % of control | [3] 103 % of control | [4] 104 % of control | [6] 102 % of control | [8] 104 % of control
